According to patent publication US20140336073A1, “METHOD OF DETERMINATION OF CANCER CELL DRUG SENSITIVITY TOWARDS AURORA KINASE INHIBITORS” (PALACKY UNIVERSITY, OLOMOUC, priority 2011, published 2014):
Read-outs that look alike come from different tables or passages of the source.

Experiments:
Bcl-w = Bcl-w (Homo sapiens, UniProt Q92843); conditions: cited from earlier work
[1] = system: p53+/+ ZM447439 resistant clones; assay: MTT based cell proliferation assay of ABT-263; conditions: diploid p53+/+ ZM447439 resistant clones, 96 hrs MTT
Method: (§1) The MTT assay was performed in three independent replicates (n=3).
(§2) This method is performed based on the principle that viable cells can reduce yellow colored MTT (3-(4,5-dimethylthiazol-2-yl)-2,5-diphenyltetrazolium bromide) salt to purple colored formazan. The intensity of the purple colored produced is directly proportional to number of viable cells, which can be measured […]. To determine the half inhibitory concentration (IC50) of any medicinal agent MTT assay is very reliable and well accepted. […] The assay was carried out in 2 technical replicates for each concentration and in 3 biological replicates. Alongside blank and controls were included and incubated for 96 hrs. At the end of the assay time point 10 μl of MTT/well (Sigma) (10 mg/ml) was added and incubated until the appearance of violet formazan crystals. The formazan was dissolved with 100 μl/well 10% aqueous SDS (pH: 5.5) by incubating the plates at 37° C. overnight. The optical density was measured at 540 nm using the Labsystem IMS reader and the […] values were determined using Chemorezist software.

[2] = system: p53−/− ZM447439 resistant clones; assay: MTT based cell proliferation assay of ABT-263; conditions: diploid p53−/− ZM447439 resistant clones, 96 hrs MTT
Method: as §1, §2

[3] = system: HCT116 p53−/−: CYC116 resistant clones; assay: MTT based cell proliferation assay of ABT-263; conditions: polyploid clones, 96 hrs MTT
Method: as §1, §2

HCT116 p53−/− parent = assay: Cell proliferation (MTT) IC50, cross-resistance profile; assay type: cell-based; conditions: Homo sapiens, HCT-116
Method: This method is performed based on the principle that viable cells can reduce yellow colored MTT (3-(4,5-dimethylthiazol-2-yl)-2,5-diphenyltetrazolium bromide) salt to purple colored formazan. The intensity of the purple colored produced is directly proportional to number of viable cells, which can be measured calorimetrically. […] The assay was carried out in 2 technical replicates for each concentration and in 3 biological replicates. Alongside blank and controls were included and incubated for 96 hrs. At the end of the assay time point 10 μl of MTT/well (Sigma) (10 mg/ml) was added and incubated until the appearance of violet formazan crystals. The formazan was dissolved with 100 μl/well 10% aqueous SDS (pH: 5.5) by incubating the plates at 37° C. overnight. The optical density was measured at 540 nm using the Labsystem IMS reader and the 1050 values were determined using Chemorezist software.

HCT116 p53+/+ parent = assay: cells; conditions: for IC50: Homo sapiens
Method: as §2

[4] = system: R2.3 (HCT116 p53−/− CYC116 resistant clone); assay: Cell proliferation (MTT) IC50, cross-resistance profile; assay type: cell-based; conditions: for IC50: Homo sapiens, HCT-116, clone R2.3; for fold increase of IC50 vs parent: clone R2.3 vs HCT116 p53−/− parent
Method: (§3) Colonies were isolated and bulked up for further studies. […] [1]
as §2

[5] = system: R1.3 (HCT116 p53+/+ CYC116 resistant clone); assay: as above; assay type: cell-based; conditions: for IC50: Homo sapiens, HCT-116, clone R1.3; for fold increase of IC50 vs parent: clone R1.3 vs HCT116 p53+/+ parent
Method: as §3, §2

[6] = system: R3.1 (HCT116 p53+/+ ZM447439 resistant clone); assay: as above; assay type: cell-based; conditions: for IC50: Homo sapiens, HCT-116, clone R3.1; for fold increase of IC50 vs parent: clone R3.1 vs HCT116 p53+/+ parent
Method: as §3, §2

[7] = system: R4.2 (HCT116 p53−/− ZM447439 resistant clone); assay: as above; assay type: cell-based; conditions: for IC50: Homo sapiens, HCT-116, clone R4.2; for fold increase of IC50 vs parent: clone R4.2 vs HCT116 p53−/− parent
Method: as §3, §2

[8] = system: R4.3 (HCT116 p53−/− ZM447439 resistant clone); assay: as above; assay type: cell-based; conditions: for IC50: Homo sapiens, HCT-116, clone R4.3; for fold increase of IC50 vs parent: clone R4.3 vs HCT116 p53−/− parent
Method: as §3, §2

[9] = system: R3.2 (HCT116 p53+/+ ZM447439 resistant clone); assay: as above; assay type: cell-based; conditions: for IC50: Homo sapiens, HCT-116, clone R3.2; for fold increase of IC50 vs parent: clone R3.2 vs HCT116 p53+/+ parent
Method: as §3, §2

[10] = system: R3.3 (HCT116 p53+/+ ZM447439 resistant clone); assay: as above; assay type: cell-based; conditions: for IC50: Homo sapiens, HCT-116, clone R3.3; for fold increase of IC50 vs parent: clone R3.3 vs HCT116 p53+/+ parent
Method: as §3, §2

[11] = system: R2.1 (HCT116 p53−/− CYC116 resistant clone); assay: as above; assay type: cell-based; conditions: for IC50: Homo sapiens, HCT-116, clone R2.1; for fold increase of IC50 vs parent: clone R2.1 vs HCT116 p53−/− parent
Method: as §3, §2

[12] = system: R1.2 (HCT116 p53+/+ CYC116 resistant clone); assay: as above; assay type: cell-based; conditions: for IC50: Homo sapiens, HCT-116, clone R1.2; for fold increase of IC50 vs parent: clone R1.2 vs HCT116 p53+/+ parent
Method: as §3, §2

[13] = system: R2.2 (HCT116 p53−/− CYC116 resistant clone); assay: as above; assay type: cell-based; conditions: for IC50: Homo sapiens, HCT-116, clone R2.2; for fold increase of IC50 vs parent: clone R2.2 vs HCT116 p53−/− parent
Method: as §3, §2

[14] = system: R4.1 (HCT116 p53−/− ZM447439 resistant clone); assay: as above; assay type: cell-based; conditions: for IC50: Homo sapiens, HCT-116, clone R4.1; for fold increase of IC50 vs parent: clone R4.1 vs HCT116 p53−/− parent
Method: as §3, §2

[15] = system: R1.1 (HCT116 p53+/+ CYC116 resistant clone); assay: as above; assay type: cell-based; conditions: for IC50: Homo sapiens, HCT-116, clone R1.1; for fold increase of IC50 vs parent: clone R1.1 vs HCT116 p53+/+ parent
Method: as §3, §2

primary tumor samples = assay: 96-h MTT cell proliferation assay on primary tumor biopsies; assay type: cell-based; conditions: Homo sapiens
CYP1A1 = CYP1A1 expression after CYC116 treatment for 48 h; assay type: cell-based; conditions: HCT116 and HCT116 p53−/− treated with CYC116 for 48 h
Source text: CYP1A1 is involved in the metabolism of polycyclic aromatic hydrocarbons (PAH). In tobacco smokers CYP1A1 transforms PAH into procarcinogens. CYP1A1 expression was reported in pulmonary cancers and also altered expression in many lung tumors (McLemore T. L. et al., Journal of the National Cancer Institute 1990; 82, 1333-39).

VEGFR2 = VEGFR2 (Homo sapiens, UniProt P35968); conditions: cited from earlier work
Sequence of VEGFR2 (P35968 20-1356): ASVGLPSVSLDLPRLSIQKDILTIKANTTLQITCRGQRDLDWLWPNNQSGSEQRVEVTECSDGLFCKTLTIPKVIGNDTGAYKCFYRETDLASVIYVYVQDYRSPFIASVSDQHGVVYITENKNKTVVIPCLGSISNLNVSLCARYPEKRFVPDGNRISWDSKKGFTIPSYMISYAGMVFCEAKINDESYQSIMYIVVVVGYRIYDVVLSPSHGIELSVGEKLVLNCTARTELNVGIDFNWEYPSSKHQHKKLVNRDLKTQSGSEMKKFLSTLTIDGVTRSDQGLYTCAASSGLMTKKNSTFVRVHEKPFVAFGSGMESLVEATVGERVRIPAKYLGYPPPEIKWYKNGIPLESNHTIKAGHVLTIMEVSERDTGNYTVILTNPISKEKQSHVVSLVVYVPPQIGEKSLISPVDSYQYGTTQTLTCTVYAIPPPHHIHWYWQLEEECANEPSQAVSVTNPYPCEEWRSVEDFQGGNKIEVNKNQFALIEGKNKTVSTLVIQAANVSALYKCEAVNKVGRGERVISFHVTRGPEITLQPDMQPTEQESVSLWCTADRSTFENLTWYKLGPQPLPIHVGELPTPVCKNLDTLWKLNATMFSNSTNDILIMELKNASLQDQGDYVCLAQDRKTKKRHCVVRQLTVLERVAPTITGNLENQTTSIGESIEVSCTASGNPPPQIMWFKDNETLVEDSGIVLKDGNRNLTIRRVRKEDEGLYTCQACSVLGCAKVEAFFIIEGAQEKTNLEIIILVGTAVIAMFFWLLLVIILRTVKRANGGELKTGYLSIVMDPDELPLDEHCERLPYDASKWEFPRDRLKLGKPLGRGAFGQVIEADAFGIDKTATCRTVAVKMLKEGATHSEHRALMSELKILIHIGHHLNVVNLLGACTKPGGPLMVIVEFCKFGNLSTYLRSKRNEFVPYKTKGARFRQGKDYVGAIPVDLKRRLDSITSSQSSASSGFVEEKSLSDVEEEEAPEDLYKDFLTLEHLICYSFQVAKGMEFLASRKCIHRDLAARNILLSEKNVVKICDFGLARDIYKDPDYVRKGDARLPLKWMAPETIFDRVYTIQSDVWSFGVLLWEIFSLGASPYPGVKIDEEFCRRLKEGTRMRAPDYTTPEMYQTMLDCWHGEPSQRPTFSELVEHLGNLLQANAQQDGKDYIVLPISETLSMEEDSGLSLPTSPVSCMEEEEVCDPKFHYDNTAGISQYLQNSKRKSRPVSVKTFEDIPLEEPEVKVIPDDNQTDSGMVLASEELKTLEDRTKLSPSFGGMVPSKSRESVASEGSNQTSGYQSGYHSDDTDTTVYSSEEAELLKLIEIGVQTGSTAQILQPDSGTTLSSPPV

[16] = system: one HCT116 p53+/+: CYC116 resistant clone; assay: MTT assay of CYC116 with or without Bcl-xL siRNA knockdown; assay type: cell-based; conditions: Homo sapiens, HCT-116
Method: as §2

Flt-3 = Flt-3 (Homo sapiens, UniProt P36888); conditions: cited from earlier work
Sequence of Flt-3 (P36888 27-993): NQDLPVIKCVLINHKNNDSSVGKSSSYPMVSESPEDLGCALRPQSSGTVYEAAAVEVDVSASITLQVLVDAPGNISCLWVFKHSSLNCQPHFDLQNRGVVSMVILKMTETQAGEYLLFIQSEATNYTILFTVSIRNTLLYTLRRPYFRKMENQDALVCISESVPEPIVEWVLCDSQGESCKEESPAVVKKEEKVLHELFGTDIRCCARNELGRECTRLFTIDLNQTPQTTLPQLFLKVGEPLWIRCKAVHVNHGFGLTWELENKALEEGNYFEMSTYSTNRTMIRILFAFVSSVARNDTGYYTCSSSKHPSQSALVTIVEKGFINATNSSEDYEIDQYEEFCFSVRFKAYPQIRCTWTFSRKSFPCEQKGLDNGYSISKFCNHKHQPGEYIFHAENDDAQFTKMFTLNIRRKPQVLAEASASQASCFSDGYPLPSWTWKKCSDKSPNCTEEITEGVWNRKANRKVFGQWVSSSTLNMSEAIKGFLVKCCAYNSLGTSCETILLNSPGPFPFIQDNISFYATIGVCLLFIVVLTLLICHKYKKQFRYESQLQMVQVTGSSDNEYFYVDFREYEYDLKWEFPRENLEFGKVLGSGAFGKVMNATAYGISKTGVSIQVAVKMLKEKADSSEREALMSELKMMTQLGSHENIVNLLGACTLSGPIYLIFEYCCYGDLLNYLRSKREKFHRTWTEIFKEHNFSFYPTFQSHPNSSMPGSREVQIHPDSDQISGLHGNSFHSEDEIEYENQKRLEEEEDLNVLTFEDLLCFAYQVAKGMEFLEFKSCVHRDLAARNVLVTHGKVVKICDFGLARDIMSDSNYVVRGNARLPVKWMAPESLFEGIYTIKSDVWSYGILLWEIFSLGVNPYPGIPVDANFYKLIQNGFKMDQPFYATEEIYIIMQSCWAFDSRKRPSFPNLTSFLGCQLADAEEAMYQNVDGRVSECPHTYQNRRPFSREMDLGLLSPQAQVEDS

Sequence of Bcl-w (Q92843 whole entry): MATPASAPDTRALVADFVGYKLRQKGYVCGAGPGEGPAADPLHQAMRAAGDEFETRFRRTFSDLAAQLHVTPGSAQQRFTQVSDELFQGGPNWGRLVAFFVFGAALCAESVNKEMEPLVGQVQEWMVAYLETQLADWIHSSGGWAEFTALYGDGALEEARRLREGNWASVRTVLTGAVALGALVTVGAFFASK

| Structure (SMILES) | IC50 (HCT116 p53−/− parent) [µM] | IC50 (HCT116 p53+/+ parent; HCT-116, read-out: mean IC50) [µM] | IC50 [4] [µM] | IC50 [5] [µM] | fold increase of IC50 vs parent [5] [fold] | IC50 [6] [µM] | fold increase of IC50 vs parent [6] [fold] | IC50 [7] [µM] | IC50 [8] [µM] | IC50 [9] [µM] | fold increase of IC50 vs parent [9] [fold] | IC50 [10] [µM] | fold increase of IC50 vs parent [10] [fold] | IC50 [11] [µM] | IC50 [12] [µM] | fold increase of IC50 vs parent [12] [fold] | IC50 [13] [µM] | IC50 [14] [µM] | IC50 [15] [µM] | fold increase of IC50 vs parent [15] [fold] | also measured |
| --- | --- | --- | --- | --- | --- | --- | --- | --- | --- | --- | --- | --- | --- | --- | --- | --- | --- | --- | --- | --- | --- |
| CC1(C)CCC(c2ccc(Cl)cc2)=C(CN2CCN(c3ccc(C(=O)NS(=O)(=O)c4ccc(N[C@H](CCN5CCOCC5)CSc5ccccc5)c(S(=O)(=O)C(F)(F)F)c4)cc3)CC2)C1 [ABT-263, (R)4-(4-((4′-chloro-4,4-dimethyl-3,4,5,6-tetrahydro[1,1′-biphenyl]-2-yl)methyl)piperazin-1-yl)-N-((4-((4-morpholino-1-(phenylthio)butan-2-yl)amino)-3-((trifluoromethyl)sulfonyl)phenyl)sulfonyl)benzamide] |  |  |  |  |  |  |  |  |  |  |  |  |  |  |  |  |  |  |  |  | Ki (Bcl-w): < 0.001 µM; response to ABT-263 [1]: resistant; response to ABT-263 [2]: resistant; response to ABT-263 compared to parent HCT116 p53−/− cells [3]: significant cross-resistance |
| CCN(CCCOc1ccc2c(Nc3cc(CC(=O)Nc4cccc(F)c4)n[nH]3)ncnc2c1)CCOP(=O)(O)O [AZD1152, 2-[ethyl-[3-[4-[[5-[2-(3-fluoroanilino)-2-oxoethyl]-1Hpyrazo[3 yl]amino]quinazolin7-yl]oxypropyl]amino]ethyldihydrogen phosphate] | > 50 | 0.01 | > 50 | 11 | 1100 | 36 | 3600 | > 50 | > 50 | 8 | 800 | 0.07 | 7 | > 50 | 18 | 1800 | > 50 | > 50 | 17 | 1700 |  |
| Cc1nc(N)sc1-c1ccnc(Nc2ccc(N3CCOCC3)cc2)n1 [CYC116, 4-methyl-5-(2-(4-morpholinophenylamino)pyrimidin-4-yl)thiazol-2-amine] |  |  |  |  |  |  |  |  |  |  |  |  |  |  |  |  |  |  |  |  | IC50 (primary tumor samples; 13 sensitive primary tumor samples): ≤ 4.42 µM; IC50 (primary tumor samples; 14 resistant primary tumor samples): ≤ 95 µM; up-regulation of CYP1A1 (CYP1A1): not detected; inhibition of VEGFR2 (VEGFR2): inhibits; IC50 ([16]; read-out: IC50 value): 6 µM; IC50 ([16]; read-out: IC50 value after knockdown of Bcl-xL): 0.9 µM; sensitization towards CYC116 by knockdown of Bcl-xL (HCT116 p53+/+ parent; Bcl-xL siRNA knockdown in HCT116 parent cell line (low Bcl-xL expression)): no sensitization effect; IC50 (HCT116 p53+/+ parent; HCT-116, read-out: IC50 value): 0.34 µM; inhibition of Flt-3 (Flt-3): inhibits |
| O=C(O)c1ccc(Nc2ncc3c(n2)-c2ccc(Cl)cc2C(c2c(F)cccc2F)=NC3)cc1 [MLN8054, 4-[[9-chloro-7-(2,6-difluorophenyl)-5H-pyrimido[5,4-d][2]benzazepin-2-yl]amino]benzoic acid] | 0.17 | 0.19 | 18 | 16 | 84 | 2 | 10 | 18.6 | 39 | 2 | 10 | 0.4 | 2 | 30 | 15 | 79 | 3 | 22 | 31 | 163 | fold increase of IC50 vs parent [4]: 106 fold; fold increase of IC50 vs parent [7]: 109 fold; fold increase of IC50 vs parent [8]: 229 fold; fold increase of IC50 vs parent [11]: 176 fold; fold increase of IC50 vs parent [13]: 18 fold; fold increase of IC50 vs parent [14]: 129 fold |
| Cc1cc(Nc2cc(N3CCN(C)CC3)nc(Sc3ccc(NC(=O)C4CC4)cc3)n2)n[nH]1 [VX-680, N-[4-[4-[4-methylpiperazin-1-yl)-6-[(5-methyl-1H-pyrazol-3-yl)amino]pyrimidin-2-yl]sulfanylphenyl]cyclopropanecarboxamide] | 0.1 | 0.03 | 2.4 | 1 | 33 | 2.6 | 87 | 1.5 | 3 | 0.7 | 23 | 0.09 | 3 | 4 | 2 | 67 | 2 | 0.8 | 1.9 | 63 | fold increase of IC50 vs parent [4]: 24 fold; fold increase of IC50 vs parent [7]: 15 fold; fold increase of IC50 vs parent [8]: 13 fold; fold increase of IC50 vs parent [11]: 40 fold; fold increase of IC50 vs parent [13]: 20 fold; fold increase of IC50 vs parent [14]: 8 fold |
